The results in this text go back to patent US8114877B2, “Organic compounds” (Novartis AG, priority 2005, dated 2012).

Where a name gives a salt, the structure may show the parent alone.

The test addresses adenosine A2A receptor (Homo sapiens, UniProt P29274). Nature of the test: adenosine A2A receptor agonist assay, method of Murphree et al, Molecular Pharmacology 61, 455-462 (2002). It is filed as binding. Conditions: method of L. J. Murphree et al. The source says: Compounds of formula I and their pharmaceutically acceptable salts are useful as pharmaceuticals. In particular, they activate the adenosine A2A receptor, i.e. they act as A2A receptor agonists.

Chain of adenosine A2A receptor (P29274 whole entry): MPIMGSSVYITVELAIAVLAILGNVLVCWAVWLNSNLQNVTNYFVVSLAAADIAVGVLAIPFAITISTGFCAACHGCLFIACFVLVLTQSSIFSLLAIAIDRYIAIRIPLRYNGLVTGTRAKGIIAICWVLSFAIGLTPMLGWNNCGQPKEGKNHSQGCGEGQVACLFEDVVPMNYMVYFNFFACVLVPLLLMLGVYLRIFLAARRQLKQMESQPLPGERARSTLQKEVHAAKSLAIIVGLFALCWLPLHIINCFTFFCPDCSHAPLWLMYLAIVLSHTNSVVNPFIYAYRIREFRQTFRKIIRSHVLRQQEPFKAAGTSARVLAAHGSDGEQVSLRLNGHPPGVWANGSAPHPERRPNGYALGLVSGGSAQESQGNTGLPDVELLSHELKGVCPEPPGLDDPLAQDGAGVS

For `Cc1nnn([C@H]2C[C@@H](n3cnc4c(NCC(c5ccccc5)c5ccccc5)nc(N[C@@H]5CCNC5)nc43)[C@H](O)[C@@H]2O)n1` [Example 7, (1R,2S,3R,5S)-3-[6-(2,2-Diphenyl-ethylamino)-2-((R)-pyrrolidin-3-ylamino)-purin-9-yl]-5-(5-methyl-tetrazol-2-yl)-cyclopentane-1,2-diol trifluoroacetate], the Ki worked out at 43 nM.

As to `NC1CCC(Nc2nc(NCC(c3ccccc3)c3ccccc3)c3ncn(C4CC(n5cccn5)C(O)C4O)c3n2)CC1` [Example 12, (1R,2S,3R,1S)-3-[2-(4-Amino-cyclohexylamino)-6-(2,2-diphenyl-ethylamino)-purin-9-yl]-5-pyrazol-1-yl-cyclopentane-1,2-diol], the Ki was determined as 272 nM.

Usually Ki stands for a measure of affinity in units of concentration, obtained from inhibition or displacement. Read a low Ki as tighter binding.
